According to patent publication US11072608B2, “Pesticidally active heterocyclic derivatives with sulphur containing substituents” (SYNGENTA PARTICIPATIONS AG, priority 2014, dated 2021):

Experiments:
[1] = test system: Spodoptera littoralis (Egyptian cotton leaf worm); experiment: Example B1: activity against Spodoptera littoralis, cotton leaf disc spray; assay type: in vivo; settings: foliar, 72 h, application rate of 200 ppm, cotton leaf discs, L1 larvae, 3 days after infestation, read-out: control in at least one of the three categories (mortality, anti-feedancy or growth inhibition)
Experimental: Example B1: Activity Against Spodoptera littoralis (Egyptian Cotton Leaf Worm)
Cotton leaf discs were placed on agar in 24-well microtiter plates and sprayed with aqueous test solutions prepared from 10,000 ppm DMSO stock solutions. After drying the leaf discs were infested with five L1 larvae. The samples were assessed for mortality, anti-feedant effect, and growth inhibition in comparison to untreated samples 3 days after infestation. Control of Spodoptera littoralis by a test sample is when at least one of mortality, anti-feedant effect, and growth inhibition is higher than the untreated sample. The following compound gave an effect of at least 80% control in at least one of the three categories (mortality, anti-feedancy or growth inhibition) at an application rate of 200 ppm: P1, P4, P5, P8, P9, P10, P12 and P13.

[2] = test system: Spodoptera littoralis (Egyptian cotton leaf worm); experiment: Example B2: activity against Spodoptera littoralis, systemic via lettuce on agar; assay type: in vivo; settings: 144 h, application rate of 12.5 ppm, Spodoptera eggs, 6 days after infestation, read-out: control in at least one of the three categories (mortality, anti-feedancy or growth inhibition)
Text: Example B2: Activity Against Spodoptera Littoralis (Egyptian Cotton Leaf Worm)
Test compounds were applied by pipette from 10,000 ppm DMSO stock solutions into 24-well plates and mixed with agar. Lettuce seeds were placed on the agar and the multi well plate was closed by another plate which contains also agar. After 7 days the roots have absorbed the compound and the lettuce has grown into the lid plate. The lettuce leafs were now cut off into the lid plate. Spodoptera eggs were pipetted through a plastic stencil on a humid gel blotting paper and the plate closed with it. The samples were assessed for mortality, anti-feedant effect and growth inhibition in comparison to untreated samples 6 days after infestation. The following compound gave an effect of at least 80% control in at least one of the three categories (mortality, anti-feedancy or growth inhibition) at an application rate of 12.5 ppm: P1, P4, P9, P12 and P13.

[3] = test system: Plutella xylostella (diamond back moth); experiment: Example B3: activity against Plutella xylostella, artificial diet; assay type: in vivo; settings: 120 h, application rate of 200 ppm, L2 larvae, 5 days after infestation, read-out: effect in at least one of the two categories (mortality or growth inhibition)
Experimental: Example B3: Activity Against Plutella xylostella (Diamond Back Moth)
24-well microtiter plates with artificial diet were treated with aqueous test solutions prepared from 10,000 ppm DMSO stock solutions by pipetting. After drying, the plates were infested with L2 larvae (10 to 15 per well). The samples were assessed for mortality and growth inhibition in comparison to untreated samples 5 days after infestation. The following compound gave an effect of at least 80% in at least one of the two categories (mortality or growth inhibition) at an application rate of 200 ppm: P1, P4, P5, P6, P8, P9, P10, P11, P12 and P13.

[4] = test system: Diabrotica balteata (corn root worm); experiment: Example B4: activity against Diabrotica balteata, maize sprouts spray; assay type: in vivo; settings: 96 h, application rate of 200 ppm, L2 larvae, 4 days after infestation, read-out: effect in at least one of the two categories (mortality or growth inhibition)
Experimental: Example B4: Activity Against Diabrotica balteata (Corn Root Worm)
Maize sprouts, placed on an agar layer in 24-well microtiter plates were treated with aqueous test solutions prepared from 10,000 ppm DMSO stock solutions by spraying. After drying, the plates were infested with L2 larvae (6 to 10 per well). The samples were assessed for mortality and growth inhibition in comparison to untreated samples 4 days after infestation. The following compounds gave an effect of at least 80% in at least one of the two categories (mortality or growth inhibition) at an application rate of 200 ppm: P1, P4, P5, P6, P8, P9, P10, P11, P12 and P13.

[5] = test system: Myzus persicae (green peach aphid); experiment: Example B5: activity against Myzus persicae, sunflower leaf disc spray; assay type: in vivo; settings: foliar, 144 h, application rate of 200 ppm, sunflower leaf discs, mixed ages, 6 days after infestation
Experimental: Example B5: Activity Against Myzus persicae (Green Peach Aphid)
(§1) Sunflower leaf discs were placed on agar in a 24-well microtiter plate and sprayed with aqueous test solutions prepared from 10,000 ppm DMSO stock solutions. After drying, the leaf discs were infested with an aphid population of mixed ages. The samples were assessed for mortality 6 days after infestation.

[6] = test system: Bemisia tabaci (cotton white fly); experiment: Example B7: activity against Bemisia tabaci, cotton leaf disc spray; assay type: in vivo; settings: foliar, 144 h, application rate of 200 ppm, cotton leaf discs, adult white flies, 6 days after incubation
Experimental: Example B7: Activity Against Bemisia tabaci (Cotton White Fly)
Cotton leaf discs were placed on agar in 24-well microtiter plates and sprayed with aqueous test solutions prepared from 10,000 ppm DMSO stock solutions. After drying the leaf discs were infested with adult white flies. The samples were checked for mortality 6 days after incubation.

[7] = test system: Euschistus heros (neotropical brown stink bug); experiment: Example B8: activity against Euschistus heros, soybean leaf spray; assay type: in vivo; settings: 120 h, application rate of 200 ppm, N-2 nymphs, 5 days after infestation
Experimental: Example B8: Activity Against Euschistus heros (Neotropical Brown Stink Bug)
Soybean leaf on agar in 24-well microtiter plates were sprayed with aqueous test solutions prepared from 10,000 ppm DMSO stock solutions. After drying the leaf were infested with N-2 nymphs. The samples were assessed for mortality 5 days after infestation.

[8] = test system: Frankliniella occidentalis (western flower thrips); experiment: Example B10: activity against Frankliniella occidentalis, sunflower leaf disc spray; assay type: in vivo; settings: foliar, 168 h, application rate of 200 ppm, sunflower leaf discs, mixed ages, 7 days after infestation
Experimental: Example B10: Activity Against Frankliniella occidentalis (Western Flower Thrips)
as §1, with “in” for “in a”, “plates” for “plate”, “10,000” for “10,000 ppm”, “drying” for “drying,”, “a Frankliniella” for “an aphid”, “7” for “6”

[9] = test system: Myzus persicae (green peach aphid); experiment: Example B9: activity against Myzus persicae, roots of pea seedlings in test solution; assay type: in vivo; settings: 144 h, test rate of 24 ppm, 6 days
Experimental: Example B9: Activity Against Myzus persicae (Green Peach Aphid)
Roots of pea seedlings infested with an aphid population of mixed ages were placed directly into aqueous test solutions prepared from 10,000 DMSO stock solutions. The samples were assessed for mortality 6 days after placing seedlings into test solutions.

[10] = test system: Thrips tabaci (onion thrips); experiment: Example B11: activity against Thrips tabaci, sunflower leaf disc spray; assay type: in vivo; settings: foliar, 144 h, application rate of 200 ppm, sunflower leaf discs, mixed ages, 6 days after infestation
Experimental: Example B11: Activity Against Thrips tabaci (Onion Thrips)
as §1, with “in” for “in a”, “plates” for “plate”, “drying” for “drying,”, “a Thrips” for “an aphid”

Compound	melting point [°C]	percent control (mortality, anti-feedancy or growth inhibition) at 200 ppm [1] [%]	control at 12.5 ppm [2] [%]	percent effect (mortality or growth inhibition) at 200 ppm [3] [%]	percent effect (mortality or growth inhibition) at 200 ppm [4] [%]	mortality at 200 ppm [5] [%]	mortality at 200 ppm [6] [%]	mortality at 200 ppm [7] [%]	mortality at 200 ppm [8] [%]	mortality at 24 ppm [9] [%]	mortality at 200 ppm [10] [%]
CCSc1cc(C2CCCC2)cnc1-c1nc2cc(C(F)(F)F)cnc2n1C [Compound P2, 2-(5-cyclopentyl-3-ethylsulfanyl-2-pyridyl)-3-methyl-6-(trifluoromethyl) imidazo[4,5-b]pyridine]	130 to 132	–	–	–	–	–	–	–	–	–	–
CCSc1cc(C2CCCCC2)cnc1-c1nc2cc(C(F)(F)F)cnc2n1C [Compound P3, 2-(5-cyclohexyl-3-ethylsulfanyl-2-pyridyl)-3-methyl-6-(trifluoromethyl) imidazo[4,5-b]pyridine]	148 to 150	–	–	–	–	–	–	–	–	–	–
CCS(=O)(=O)c1cc(C2CC2)cnc1-c1nc2cc(C(F)(F)F)cnc2n1C [Compound P4, 2-(5-cyclopropyl-3-ethylsulfonyl-2-pyridyl)-3-methyl-6-(trifluoromethyl) imidazo[4,5-b]pyridine]	–	≥ 80	≥ 80	≥ 80	≥ 80	≥ 80	≥ 80	≥ 80	≥ 80	–	–
CCS(=O)(=O)c1cc(C2CCCC2)cnc1-c1nc2cc(C(F)(F)F)cnc2n1C [Compound P5]	–	≥ 80	–	≥ 80	≥ 80	≥ 80	–	≥ 80	–	–	–
CCS(=O)(=O)c1cc(C2CCCCC2)cnc1-c1nc2cc(C(F)(F)F)cnc2n1C [Compound P6]	–	–	–	≥ 80	≥ 80	≥ 80	≥ 80	≥ 80	–	–	–
CCSc1cc(C2CCC2)cnc1-c1nc2cc(C(F)(F)F)cnc2n1C [Compound P7]	136 to 138	–	–	–	–	–	–	–	–	–	–
CCS(=O)(=O)c1cc(C2CCC2)cnc1-c1nc2cc(C(F)(F)F)cnc2n1C [Compound P8]	–	≥ 80	–	≥ 80	≥ 80	≥ 80	≥ 80	≥ 80	–	–	–
CCS(=O)(=O)c1cc(C2(C#N)CC2)cnc1-c1nc2cc(C(F)(F)F)cnc2n1C [Compound P9, 1-[5-ethylsulfonyl-6-[3-methyl-6-(trifluoromethyl)imidazo[4,5-b]pyridin-2-yl]-3-pyridyl]cyclopropanecarbonitrile]	–	≥ 80	≥ 80	≥ 80	≥ 80	≥ 80	≥ 80	≥ 80	≥ 80	≥ 80	≥ 80
CCS(=O)(=O)c1cc(C2(C#N)CCC2)cnc1-c1nc2cc(C(F)(F)F)cnc2n1C [Compound P10]	–	≥ 80	–	≥ 80	≥ 80	≥ 80	≥ 80	≥ 80	–	–	–
CCS(=O)(=O)c1cc(C2(C(N)=O)CC2)cnc1-c1nc2cc(C(F)(F)F)cnc2n1C [Compound P11, 1-[5-ethylsulfonyl-6-[3-methyl-6-(trifluoromethyl)imidazo[4,5-b]pyridin-2-yl]-3-pyridyl]cyclopropanecarboxamide]	–	–	–	≥ 80	≥ 80	≥ 80	≥ 80	≥ 80	≥ 80	≥ 80	–
CCS(=O)(=O)c1cc(C2(C(=O)O)CC2)cnc1-c1nc2cc(C(F)(F)F)cnc2n1C [Compound P12, 1-[5-ethylsulfonyl-6-[3-methyl-6-(trifluoromethyl)imidazo[4,5-b]pyridin-2-yl]-3-pyridyl]cyclopropanecarboxylic acid]	–	≥ 80	≥ 80	≥ 80	≥ 80	≥ 80	≥ 80	≥ 80	–	–	–
CCS(=O)(=O)c1cc(C2(C#N)CC2)cnc1-c1nc2cc(SC(F)(F)F)cnc2n1C [Compound P13, 1-[5-ethylsulfonyl-6-[3-methyl-6-(trifluoro-methylsulfanyl)imidazo[4,5-b]pyridin-2-yl]-3-pyridyl]cyclopropanecarbonitrile]	–	≥ 80	≥ 80	≥ 80	≥ 80	≥ 80	≥ 80	≥ 80	≥ 80	–	≥ 80
CCS(=O)(=O)c1ccc(C2CC2)nc1-c1nc2cc(C(F)(F)F)cnc2n1C [Compound P14, 2-(6-cyclopropyl-3-ethylsulfonyl-2-pyridyl)-3-methyl-6-(trifluoromethyl)imidazo[4,5-b]pyridine]	163 to 165	–	–	–	–	–	–	–	–	–	–
